In the supplement of paper PMC3974653:
Where a name gives a salt, the structure may show the parent alone.

These molecules were tested on MTT (mouse pheochromocytoma) (assay: IC50 of cell viability (ATP content)). Conditions: (24 or 48 h).
Outline: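 MTT mouse pheochromocytoma cells, cultured overnight at 37°C, 5% CO2 in DMEM with 5% FBS and 1% horse serum, were exposed in white 1536-well plates to library compounds in DMSO at final 0.5 nM to 46 µM (8 concentrations) for 24 or 48 hrs. CellTiter-Glo luminescence was normalised to positive-control (100%) and DMSO (0%) wells. A four-parameter logistic fit gave the IC50.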

SMILES | IC50 of cell viability
CC(N)CCCC(C)(C)O.Cl (stereo not given) [HEPTAMINOL HYDROCHLORIDE] | > 46 µM
O=C(c1ccccc1)C(O)c1ccccc1 (stereo not given) [Benzoin] | > 46 µM
Cc1ccc(-c2cc(C(F)(F)F)nn2-c2ccc([S+](N)(=O)[O-])cc2)cc1 [Celecoxib] | > 46 µM
CCN(CC)C(=O)N[C@@H]1C=C2c3cccc4[nH]cc(c34)C[C@H]2N(C)C1 [S(-)-LISURIDE] | > 46 µM
C=C/C=C/CC1=C(C)[C@@H](OC(=O)[C@@H]2[C@@H](/C=C(\C)C(=O)OC)C2(C)C)CC1=O.C=C/C=C/CC1=C(C)[C@@H](OC(=O)[C@@H]2[C@@H](C=C(C)C)C2(C)C)CC1=O [PYRETHRINS/Pestanal] | > 46 µM
C1\C=C/C2C\3CC(\C=C3)C12 (stereo not given) [Dicyclopentadiene] | > 46 µM
Cl.NCCS [Cysteamine hydrochloride] | > 46 µM
C[N@+]1([O-])[C@@H]2CC[C@@H]1C[C@@H](OC(=O)[C@@H](CO)c1ccccc1)C2 [Atropine-N-oxide hydrochloride] | > 46 µM
NC(=O)N[C@H]1NC(=O)NC1=O [Allantoin] | > 46 µM
O=C1N(c2ccccc2)c2ccccc2C1(Cc1ccncc1)Cc1ccncc1 [Linopirdine dihydrochloride] | > 46 µM
N[C@@H]1CONC1=O [D-cycloserine] | > 46 µM
C=CCN1C[C@H](C)N([C@H](c2ccc(C(=O)N(CC)CC)cc2)c2cccc(OC)c2)C[C@H]1C [SNC 80] | > 46 µM
Cl.OC(CCN1CCCCC1)(c1ccccc1)C1CCCCC1 (stereo not given) [TRIHEXYPHENIDYL HYDROCHLORIDE] | > 46 µM
NCCN.[Cl-].[Cl-].[Pt+2] [Dichloro(ethylenediamine)platinum(II)] | > 46 µM
C[C@]12CCC3C(CCC4=C(Cl)C(=O)CC[C@@]43C)C1CCC2O (stereo not given in full) [Clostebol] | > 46 µM
CC(C)CC(CN)CC(=O)O (stereo not given) [PREGABALIN] | > 46 µM
O=C1CCC(N2C(=O)c3ccccc3C2=O)C(=O)N1 (racemic) [(+-)-Thalidomide] | > 46 µM

SMILES | IC50 of cell viability
OCCN(CCO)CCO [Trolamine] | > 46 µM
C[N@+]1([O-])[C@H]2CC[C@H]1C[C@H](OC(=O)[C@@H](CO)c1ccccc1)C2 [Atropine oxide] | > 46 µM
Cc1ccc(-c2ncc(Cl)cc2-c2ccc(S(C)(=O)=O)cc2)cn1 [ETORICOXIB] | > 46 µM
O=C1CC2(CCCC2)CC(=O)N1CCCCN1CCN(c2ncccn2)CC1 [BUSPIRONE] | > 46 µM
CCN(CC)CCOc1ccc(Cc2ccccc2)cc1 [N,N-DIETHYL-2-[4-(PHENYLMETHYL)PHENOXY]ETHANAMINE] | > 46 µM
Fc1ccc(C(c2ccc(F)cc2)N2CCN(C/C=C/c3ccccc3)CC2)cc1 [FLUNARIZINE] | > 46 µM
C[C@H](CS)C(=O)N1CCC[C@H]1C(=O)O [CAPTOPRIL] | > 46 µM
COP(=O)(OC)OC=C(Cl)Cl [Dichlorvos (Vapona)] | > 46 µM
Clc1ccccc1-c1nc(-c2ccncc2)no1 [PIFEXOLUM] | > 46 µM
Cc1ncc(CO)c(CN)c1O [Pyridoxamine dichlorohydrate] | > 46 µM
CC1\N=C(N)/OC1C2=CC=CC=C2 (stereo not drawn) [(?)-cis-(4RS,5SR)-2-Amino-4-methyl-5-phenyl-2-oxazoline] | > 46 µM
ClC1=CC=C2NC(=O)C\N=C(\C3=CC=CC=C3)C2=C1 [Desmethyldiazepam] | > 46 µM
CSC1=CC=C(C=C1)C(=O)\C2=C(/C)NC(=O)N2 [Enoximone] | > 46 µM
CCCCNC(=O)N[S+](=O)([O-])c1ccc(C)cc1 [TOLBUTAMIDE] | > 46 µM
CCCCCCCCCCCCCCCCCCOCC(O)CO (stereo not given) [BATYL ALCOHOL] | > 46 µM
CC(=O)CC(C1=CC=CC=C1)C/2=C(O)/C3=CC=CC=C3OC2=O (stereo not given) [WARFARIN] | > 46 µM
C[C@@H]1CCC[C@H](C)N1 [(cis-) Nanophine] | > 46 µM

Further lines, results first:

IC50 of cell viability | SMILES
> 46 µM | CC1(C)CCC(C)(C)c2cc(NC(=O)c3ccc(C(=O)O)cc3)ccc21 [TAMIBAROTENE]
> 46 µM | OCC1O[C@H](Oc2ccc(O)cc2)C(O)C(O)C1O (stereo not given in full) [ARBUTIN]
> 46 µM | CN[C@@H]1[C@H](O[C@H]2[C@H](O[C@H]3[C@H](O)[C@@H](O)[C@H](NC(=N)N)[C@@H](O)[C@@H]3NC(=N)N)O[C@@H](C)[C@]2(O)C=O)O[C@@H](CO)[C@H](O)[C@H]1O [Streptomycin sulfate]
> 46 µM | CC(C)=CCC[C@](C)(O)C1CC\C(=C/C1)C (stereo not given in full) [BISABOLOL]
> 46 µM | O=P(O)(O)C(O)(Cn1ccnc1)P(=O)(O)O [Zoledronic acid]
> 46 µM | CC(CC=O)CCCC(C)(C)O (stereo not given) [HYDROXYCITRONELLAL]
> 46 µM | CC(C(=O)O)c1ccc(CC2CCCC2=O)cc1 (stereo not given) [loxoprofen]
> 46 µM | C[C@@H]1O[C@@H](O[C@@H]2\C=C/C=C\C=C/C=C\C[C@H](C)OC(=O)/C=C\[C@H]3O[C@@H]3C[C@H](O)C[C@]3(O)C[C@@H](O)[C@@H](C(=O)O)[C@H](C2)O3)[C@H](O)[C@H](N)[C@@H]1O [Natamycin]
> 46 µM | CCCCC(CC)COC(=O)c1ccccc1O (stereo not given) [Octisalate]
> 46 µM | CCOC(=O)c1c(C)n(C)c2ccc(O)cc12 [Mecarbinate]
> 46 µM | CC(=O)NC(Cc1ccccc1)C(=O)O (stereo not given) [AFALANINUM]
> 46 µM | Nc1nc(/C(=C/CC(=O)O)C(=O)NC2C(=O)N3C(C(=O)O)=CCSC23)cs1 (stereo not given) [CEFTIBUTEN]
> 46 µM | NC(=O)CCCCC1CCSS1 (stereo not given) [THIOCTIC ACID AMIDE]
> 46 µM | [O-]C(=O)C/1=C(/CS[C@@H]2[C@H](NC(=O)C[N]3C=NN=N3)C(=O)N12)CSC4=NN=CS4 [CEFTEZOLE SODIUM]
> 46 µM | C[N+]1(C)[C@@H]2CC(OC(=O)C(O)(c3cccs3)c3cccs3)C[C@H]1[C@@H]1O[C@@H]12 (stereo not given in full) [TIOTROPIUM BROMIDE MONOHYDRATE]
> 46 µM | CN(C)CCOC(=O)COc1ccc(Cl)cc1 [Meclofenoxate hydrochloride]
> 46 µM | CNC1C(O)C(OC2C(NC(=O)C(O)CN)CC(N)C(OC3OC(CN)C(O)C(O)C3O)C2O)OCC1(C)O (stereo not given) [Isepamicin]
> 46 µM | O=C(NC[C@@H](O)CO)c1c(I)c(C(=O)NC[C@@H](O)CO)c(I)c(N(CCO)C(=O)CO)c1I [Ioversol]
> 46 µM | CCCCc1oc2ccccc2c1C(=O)c1cc(I)c(OCCN(CC)CC)c(I)c1 [Amiodarone hydrochloride]
> 46 µM | C[C@@H]\1C[C@@H]2[C@H]3CC[C@](O)(C(C)=O)[C@]3(C)C[C@H](O)[C@]2(F)[C@@]4(C)\C=C/C(=O)/C=C14 [Fluorometholone]
> 46 µM | CCCCCCCCCCCCCCCCCC(=O)OCC(O)CO (stereo not given) [GLYCERYL MONOSTEARATE]
